Numbered stars: 1 amine (or outer) side, 2 acyl side, 3 side chain; on linkers, the order of the positions; unused ones are H or OH. Bridge positions count the residues as written; N and C are the ends. Side chains are listed from the residue outwards. Peptide text beside a SMILES is read from it. * marks the point of attachment. C20 diacid = O=C(O)CCCCCCCCCCCCCCCCCCC(=O)*; γGlu = O=C(O)[C@H](CCC(=O)[*:2])N[*:1]

For one series, the target named is T1, human amylin receptor (Homo sapiens, UniProt O60896+P30988).
T1 construct: host or cells: CHO-K1/Ga15/AMY3 cells, further stably transfected with a CRE-luciferase plasmid
T1 sequence (P30988 25-474): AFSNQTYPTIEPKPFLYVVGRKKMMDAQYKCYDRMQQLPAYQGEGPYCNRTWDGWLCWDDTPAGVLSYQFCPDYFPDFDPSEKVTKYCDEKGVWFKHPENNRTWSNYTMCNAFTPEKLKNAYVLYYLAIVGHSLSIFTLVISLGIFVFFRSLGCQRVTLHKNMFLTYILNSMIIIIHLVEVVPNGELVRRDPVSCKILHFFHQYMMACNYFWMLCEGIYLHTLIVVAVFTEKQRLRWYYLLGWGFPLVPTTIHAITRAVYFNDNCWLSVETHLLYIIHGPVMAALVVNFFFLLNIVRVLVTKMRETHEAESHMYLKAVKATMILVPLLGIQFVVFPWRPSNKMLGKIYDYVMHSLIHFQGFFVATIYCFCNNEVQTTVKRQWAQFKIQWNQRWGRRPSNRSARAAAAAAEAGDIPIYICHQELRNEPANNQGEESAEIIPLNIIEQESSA
T1 sequence (O60896 24-148 partner): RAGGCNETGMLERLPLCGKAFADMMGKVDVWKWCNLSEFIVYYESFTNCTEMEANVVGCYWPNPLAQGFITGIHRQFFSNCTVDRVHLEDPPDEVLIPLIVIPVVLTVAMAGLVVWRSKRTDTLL
The experiment in a line: Luciferase assay of amylin derivatives in amylin receptor/CRE-luc CHO cell line. It counts as cell-based. The following applies: CHO-K1/Ga15/AMY3 CRE-luc cells, 24 hours incubation, F12 medium containing 10% FBS; read-out: EC50.

A short description of series [1]: Freeze-thaw stability of derivatives (freeze-thaw yield by liquid chromatography). It counts as physicochemical. The following applies: for Dissolution property: appearance after dissolution at 0.2 mg/ml in 20 mM phosphate buffer solution (PB) (pH 7.0); for Freeze storage property: appearance after overnight storage at −20° C. and thawing to room temperature, 0.2 mg/ml in 20 mM PB (pH 7.0). A digest of the protocol:
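Freeze-thaw yield is the ratio of peptide concentration after versus before one overnight −20° C freeze and room-temperature thaw, both quantified by RP-HPLC of supernatant after centrifugation. Samples were 0.2 mg/ml freeze-dried derivative in 20 mM PB, pH 7.0.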

Method for human amylin receptor: The experiment was intended to detect the activity or efficacy of the amylin derivatives on a human amylin receptor in vitro by luciferase assay.
50 μL of growth medium (F12 medium containing 10% FBS) was added into each well of a white 96-well plate, and the stably transfected amylin/CRE-lue CHO cells were inoculated into the white 96-well plate at a density of about 20,000 cells/well for activity determination.

One may read the EC50 as the concentration at which the effect is half-maximal. Take `CC[C@H](C)[C@H](NC(=O)[C@@H]1CCCN1C(=O)[C@H](CCCCNC(=O)CC[C@H](NC(=O)CCCCCCCCCCCCCCCCCCC(=O)O)C(=O)O)NC(=O)[C@H](CC(C)C)NC(=O)[C@H](CC(N)=O)NC(=O)[C@H](CC(N)=O)NC(=O)[C@H](CO)NC(=O)[C@H](CO)NC(=O)[C@H](Cc1c[nH]cn1)NC(=O)[C@H](CCCNC(=N)N)NC(=O)[C@H](CC(C)C)NC(=O)[C@H](Cc1ccccc1)NC(=O)[C@H](CCC(=O)O)NC(=O)[C@H](C)NC(=O)[C@H](CC(C)C)NC(=O)[C@H](CCCNC(=N)N)NC(=O)[C@H](CCC(N)=O)NC(=O)[C@@H](NC(=O)[C@H](C)NC(=O)[C@@H]1CSSC[C@H](N)C(=O)N[C@@H](CC(N)=O)C(=O)N[C@@H]([C@@H](C)O)C(=O)N[C@@H](C)C(=O)N[C@@H]([C@@H](C)O)C(=O)N1)[C@@H](C)O)C(=O)N[C@@H](CC(C)C)C(=O)N1CCC[C@H]1C(=O)N1CCC[C@H]1C(=O)N[C@H](C(=O)N[C@@H](CC(N)=O)C(=O)N[C@H](C(=O)NCC(=O)N[C@@H](CO)C(=O)N[C@@H](CC(N)=O)C(=O)N[C@H](C(=O)N1CCC[C@H]1C(N)=O)[C@@H](C)O)C(C)C)[C@@H](C)O` [PD049] (H-CNTATCATQRLAEFLRHSSNNLK([γGlu-C20 diacid])PILPPTNVGSNTP-NH2; disulfide 1-6 (inferred); N-terminus assumed): the 50% effective concentration (EC50) at human amylin receptor is 215 pM. In addition, in series [1], the Dissolution property entry is on record as “Clear” and the Freeze storage property entry is reported as “Clear”. The molecule also registered a Freeze storage yield in series [1] (concentration of polypeptide after freezing and thawing / concentration before, by liquid chromatography, −20° C. overnight) of 99.00%.
With `CC[C@H](C)[C@H](NC(=O)[C@@H]1CCCN1C(=O)CNC(=O)[C@H](CCCCNC(=O)CC[C@H](NC(=O)CCCCCCCCCCCCCCCCCCC(=O)O)C(=O)O)NC(=O)[C@H](CC(N)=O)NC(=O)[C@H](CC(N)=O)NC(=O)[C@H](CO)NC(=O)[C@H](CO)NC(=O)[C@H](Cc1c[nH]cn1)NC(=O)[C@H](CCCNC(=N)N)NC(=O)[C@H](CC(C)C)NC(=O)[C@H](Cc1ccccc1)NC(=O)[C@H](CCC(=O)O)NC(=O)[C@H](C)NC(=O)[C@H](CC(C)C)NC(=O)[C@H](CCCNC(=N)N)NC(=O)[C@H](CCC(N)=O)NC(=O)[C@@H](NC(=O)[C@H](C)NC(=O)[C@@H]1CSSC[C@H](NC(=O)[C@@H](N)CCCNC(=N)N)C(=O)N[C@@H](CC(N)=O)C(=O)N[C@@H]([C@@H](C)O)C(=O)N[C@@H](C)C(=O)N[C@@H]([C@@H](C)O)C(=O)N1)[C@@H](C)O)C(=O)N[C@@H](CC(C)C)C(=O)N1CCC[C@H]1C(=O)N1CCC[C@H]1C(=O)N[C@H](C(=O)N[C@@H](CC(N)=O)C(=O)N[C@H](C(=O)NCC(=O)N[C@@H](CO)C(=O)N[C@@H](CC(N)=O)C(=O)N[C@H](C(=O)N1CCC[C@H]1C(N)=O)[C@@H](C)O)C(C)C)[C@@H](C)O` [PD008] (H-RCNTATCATQRLAEFLRHSSNNK([γGlu-C20 diacid])GPILPPTNVGSNTP-NH2; disulfide 2-7 (inferred)), the EC50 on human amylin receptor came to 281 pM. Moreover, in series [1], the Dissolution property entry is given as “Clear” and the Freeze storage property entry is “Clear”.

(Values after patent US20260166128A1, “HUMAN AMYLIN ANALOG, AND DERIVATIVE THEREOF AND USE THEREOF” (priority 2022, published 2026).)
